Holding throughout (assay): NCI anticancer screen, dose series, 48 h
Assay [1] has as its system RPMI-8226 leukemia.
Assay [2] relates to RXF 393 renal.
The test system of assay [3] is COLO 205 colon.
The test system of assay [4] is SK-OV-3 ovarian.
Assay [5] deals with K-562 leukemia.
The subject of assay [6] is CAKI-1 renal.
Assay [7] concerns HOP-62 NSCLC.
Assay [8] has as its system SK-MEL-5 melanoma.
In assay [9] the test system is MDA-MB-231 breast.

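These data come from cells grown in 96-well plates and exposed to compound for 48 hours at five concentrations. GI50 is the concentration that inhibits growth by half. TGI marks complete inhibition of growth.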

`O=C(Cc1ccccc1)NS(=O)(=O)c1ccccc1`: the TGI in assay [1], in [2], in [3], in assay [4], in assay [5] and in [6] was greater than 100 µM throughout. This compound had a TGI in assay [7] greater than 100 µM.

`Nc1ccccc1C#Cc1ccccc1C#Cc1cnccn1`: the GI50 in assay [1] was 14.8 µM; in assay [2] it was 85.4 µM; in [8] it was 4.6 µM; in assay [4] it was 22.2 µM; in assay [5], 26.1 µM; in assay [6] it was 14.3 µM. In addition, the GI50 in assay [7] is 21.1 µM; in assay [9], 14.3 µM. The TGI in assay [1] was 50.2 µM; in assay [2], greater than 100 µM; in assay [8] it was 18 µM; in assay [4], 55 µM; in assay [5], 93.1 µM; in assay [6] it was 29.2 µM. Besides, the TGI in assay [7] is 54.9 µM; in [9], 29.3 µM.

In the case of `CCOC(=O)NC1CC2CCC1(OC)C=C2C` (configuration not stated), the TGI in assay [1], in assay [2], in assay [3], in assay [8], in assay [4] and in assay [5] was greater than 100 µM each time. In addition, the TGI in assay [6] and in assay [7] was greater than 100 µM throughout.

Turning to `COC(=O)C1=C(C)N(NC(N)=O)C(C)(O)C12CCOC2=O` (configuration not stated), the TGI in assay [1], in assay [3], in assay [4], in assay [5], in assay [6] and in assay [7] was greater than 100 µM throughout.

On to `O=NN(CCCl)C(=O)N[C@H]1CCCC[C@@H]1Cl`, for which the TGI in assay [1], in assay [2], in assay [3], in assay [8], in [4] and in assay [5] was greater than 100 µM in each case. In addition, the TGI in assay [6] was greater than 100 µM.

`COC1CC(OC)C(O)C(CO)O1` (configuration not stated): the TGI in [2], in assay [8], in [4], in [5] and in assay [7] was greater than 100 µM throughout.

For `O=C(O)[C@@H](NS(=O)(=O)c1ccc([N+](=O)[O-])cc1)c1ccccc1`, the TGI in assay [1], in assay [2], in assay [3], in assay [8], in [4] and in [5] was greater than 100 µM in each case. Moreover, the TGI in assay [6] was greater than 100 µM.

`Cc1ccc(N2C(=O)C(Cl)=C(Cl)C2=O)cc1`: the TGI was 52.8 µM in assay [1]; 25.4 µM in assay [2]; 30.7 µM in [3]; greater than 100 µM in assay [8]; greater than 100 µM in assay [4]; 87.4 µM in [5]. For the same compound, the results for the TGI in [6] and in assay [7] were 31.4 µM and greater than 100 µM, respectively.

Regarding `Cc1c(CC/C(=N\Nc2ccc([N+](=O)[O-])cc2[N+](=O)[O-])c2ccccc2)c2ccccc2n1C`, the TGI in assay [1] is greater than 100 µM; in assay [2], greater than 83.6 µM; in assay [3], greater than 100 µM; in [8] it was greater than 100 µM; in assay [4], greater than 100 µM; in [5], greater than 31.6 µM. In addition, the TGI in assay [6] and in [7] was greater than 100 µM throughout.

Consider `CCOC(=O)c1cc(OC(=O)CC)c2c(OC)ccc(OC)c2c1`, for which the TGI in assay [1] was greater than 100 µM; in assay [2], 69.7 µM; in assay [3], greater than 100 µM; in assay [8], greater than 100 µM; in assay [4], 91.6 µM; in [5], greater than 100 µM. For the same compound, the TGI in [6] is greater than 100 µM.

`C=C[C@H]1C=Cc2c(OC)cccc2[C@@H]1COP1(=S)NC(C)C(c2ccccc2)O1` (some centres not stated): the TGI in assay [1], in [2], in [3], in assay [8], in [4] and in assay [5] was greater than 100 µM in each case. In assay [7], the TGI is greater than 100 µM.

Consider `C[CH2][Sn]([CH2]C)([O]C(=O)c1ccc(F)cc1)[O][Sn]([CH2]C)([CH2]C)[O]C(=O)c1ccc(F)cc1`, for which the GI50 is 15.7 µM in assay [2]; 59.7 µM in assay [3]; greater than 100 µM in [8]; greater than 100 µM in [4]; 20.1 µM in [5]; 12.2 µM in assay [6]. The GI50 in [7] was greater than 100 µM. Also, the TGI in [2] was 29.9 µM; in assay [3], greater than 100 µM; in assay [8] it was greater than 100 µM; in assay [4] it was greater than 100 µM; in assay [5] it was 78.6 µM; in assay [6] it was 24.9 µM. The TGI in assay [7] is greater than 100 µM.

For `COc1ccccc1NC(=O)C(CC(C(=O)Nc1ccccc1OC)/C(C)=N/NC(=O)c1ccccc1O)/C(C)=N/NC(=O)c1ccccc1O` (configuration not stated), the TGI in [1], in [2], in assay [3], in [8], in assay [4] and in assay [5] was greater than 100 µM each time. Moreover, the TGI in assay [6] and in [7] was greater than 100 µM in each case.

Turning to `CCCN1C(=O)CNC(=O)c2[nH]cnc21`, the TGI in [1], in assay [2], in assay [3], in assay [8], in assay [4] and in [5] was greater than 100 µM in each case. Besides, the TGI in assay [6] and in [7] was greater than 100 µM throughout.

As to `Nc1nc(=Nc2ccccc2)ss1`, the TGI in [1], in [2], in assay [3], in assay [8], in [4] and in assay [5] was greater than 100 µM each time. Also, the TGI in assay [6] and in [7] was greater than 100 µM in each case.

As to `CCOC(=O)C(C(=O)OCC)=c1sc(=C(C(=O)OCC)C(=O)OCC)s1`, the TGI in assay [1], in assay [2], in [3], in assay [8], in assay [4] and in assay [5] was greater than 100 µM throughout. For the same compound, the TGI in [6] and in assay [7] was greater than 100 µM throughout.
